Patent US11208396B2, “Oxime compounds as agonists of the muscarinic M1 and/or M4 receptor” (Heptares Therapeutics Limited, priority 2015, dated 2021)

What was measured:
Format in all cases: cell-based
[1] = molecular target: T1, human muscarinic M1 receptor (Homo sapiens, UniProt P11229); assay: Alphascreen Surefire phospho-ERK1/2 functional assay, M1; details: for EC50 / % Emax cf. ACh, M1 / pEC50 M1: CHO cells stably expressing human M1; for EC50 / pEC50 M1: agonist 5 min, 37° C.; for EC50: read-out: pEC50 M1 (converted); for Emax: CHO, read-out: % Emax cf. ACh, M1, CHO cells stably expressing human M1; for Emax / % Emax cf. ACh, M1: Emax compared with ACh
T1 sequence (P11229 1-460): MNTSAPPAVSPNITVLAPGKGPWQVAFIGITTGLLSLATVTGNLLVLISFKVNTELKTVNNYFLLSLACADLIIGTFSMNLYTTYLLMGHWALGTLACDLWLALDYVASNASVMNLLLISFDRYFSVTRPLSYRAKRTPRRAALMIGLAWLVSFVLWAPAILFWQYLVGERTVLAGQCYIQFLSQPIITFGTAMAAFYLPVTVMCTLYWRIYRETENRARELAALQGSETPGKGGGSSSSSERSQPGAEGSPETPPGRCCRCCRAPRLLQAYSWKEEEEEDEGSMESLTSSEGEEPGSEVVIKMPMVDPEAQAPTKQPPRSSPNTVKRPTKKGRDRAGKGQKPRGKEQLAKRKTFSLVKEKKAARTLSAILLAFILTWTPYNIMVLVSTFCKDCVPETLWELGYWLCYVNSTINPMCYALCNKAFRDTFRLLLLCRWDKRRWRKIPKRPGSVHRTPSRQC
Method: (§1) ERK1/2 phosphorylation is a downstream consequence of both Gq/11 and Gi/o protein coupled receptor activation, making it highly suitable for the assessment of M1, M3 (Gq/11 coupled) and M2, M4 receptors (Gi/o coupled), rather than using different assay formats for different receptor subtypes. CHO cells stably expressing the human muscarinic M1, M2, M3 or M4 receptor were plated (25K/well) onto 96-well tissue culture plates in MEM-alpha+10% dialysed FBS. Once adhered, cells were serum-starved overnight. Agonist stimulation was performed by the addition of 5 μL agonist to the cells for 5 min (37° C.). Media was removed and 50 μL of lysis buffer added. After 15 min, a 4 μL sample was transferred to 384-well plate and 7 μL of detection mixture added. Plates were incubated for 2 h with gentle agitation in the dark and then read on a PHERAstar plate reader.
(§2) pEC50 and Emax figures were calculated from the resulting data for each receptor subtype.

[2] = molecular target: T2, human muscarinic M4 receptor (Homo sapiens, UniProt P08173); assay: Alphascreen Surefire phospho-ERK1/2 functional assay, M4; details: for % Emax cf. ACh, M4 / Emax: Emax compared with ACh; for EC50: read-out: pEC50 M4 (converted); for Emax: CHO, read-out: % Emax cf. ACh, M4, CHO cells stably expressing human M4
T2 construct: expressed in transfected cells
T2 sequence (P08173 1-479): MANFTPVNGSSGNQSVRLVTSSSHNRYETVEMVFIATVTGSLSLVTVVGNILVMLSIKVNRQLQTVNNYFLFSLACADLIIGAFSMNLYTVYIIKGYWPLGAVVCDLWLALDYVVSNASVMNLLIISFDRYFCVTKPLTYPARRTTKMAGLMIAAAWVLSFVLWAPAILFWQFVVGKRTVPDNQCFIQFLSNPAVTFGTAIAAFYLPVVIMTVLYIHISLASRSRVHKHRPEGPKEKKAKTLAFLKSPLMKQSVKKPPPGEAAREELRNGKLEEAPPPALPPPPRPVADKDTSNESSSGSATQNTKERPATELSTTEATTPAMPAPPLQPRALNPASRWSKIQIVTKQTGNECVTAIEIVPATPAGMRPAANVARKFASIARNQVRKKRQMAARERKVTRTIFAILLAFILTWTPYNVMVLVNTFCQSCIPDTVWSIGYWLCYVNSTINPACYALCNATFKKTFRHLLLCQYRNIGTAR
Method: as §1, §2

[3] = molecular target: T3, human muscarinic M3 receptor (Homo sapiens, UniProt P20309); assay: Alphascreen Surefire phospho-ERK1/2 functional assay, M3; details: for EC50 / % Emax cf. ACh, M3 / pEC50 M3: CHO cells stably expressing human M3; for EC50 / pEC50 M3: agonist 5 min, 37° C.; for EC50: read-out: pEC50 M3 (converted); for Emax: CHO, read-out: % Emax cf. ACh, M3, CHO cells stably expressing human M3; for Emax / % Emax cf. ACh, M3: Emax compared with ACh
T3 construct: expressed in transfected cells
Method: as §1, §2

[4] = molecular target: T4, human muscarinic M2 receptor (Homo sapiens, UniProt P08172); assay: Alphascreen Surefire phospho-ERK1/2 functional assay, M2; details: for EC50 / % Emax cf. ACh, M2 / pEC50 M2: CHO cells stably expressing human M2; for EC50 / pEC50 M2: agonist 5 min, 37° C.; for EC50: read-out: pEC50 M2 (converted)
T4 sequence (P08172 1-466): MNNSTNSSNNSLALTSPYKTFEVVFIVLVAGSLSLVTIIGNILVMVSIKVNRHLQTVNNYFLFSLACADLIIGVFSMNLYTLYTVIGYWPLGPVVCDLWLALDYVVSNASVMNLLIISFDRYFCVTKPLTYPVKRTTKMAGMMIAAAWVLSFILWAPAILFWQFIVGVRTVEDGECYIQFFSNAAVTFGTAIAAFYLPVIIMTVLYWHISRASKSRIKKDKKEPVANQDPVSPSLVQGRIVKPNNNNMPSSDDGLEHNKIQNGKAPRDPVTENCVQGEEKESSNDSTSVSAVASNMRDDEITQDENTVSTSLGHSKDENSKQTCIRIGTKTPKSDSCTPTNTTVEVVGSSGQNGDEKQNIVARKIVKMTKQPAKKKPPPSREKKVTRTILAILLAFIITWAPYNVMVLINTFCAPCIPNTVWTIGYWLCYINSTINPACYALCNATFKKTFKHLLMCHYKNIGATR
Method: as §1, §2

[5] = CHO cells stably expressing human M4
[6] = CHO cells stably expressing human M4, agonist 5 min, 37° C.

T3 sequence (P20309 whole entry): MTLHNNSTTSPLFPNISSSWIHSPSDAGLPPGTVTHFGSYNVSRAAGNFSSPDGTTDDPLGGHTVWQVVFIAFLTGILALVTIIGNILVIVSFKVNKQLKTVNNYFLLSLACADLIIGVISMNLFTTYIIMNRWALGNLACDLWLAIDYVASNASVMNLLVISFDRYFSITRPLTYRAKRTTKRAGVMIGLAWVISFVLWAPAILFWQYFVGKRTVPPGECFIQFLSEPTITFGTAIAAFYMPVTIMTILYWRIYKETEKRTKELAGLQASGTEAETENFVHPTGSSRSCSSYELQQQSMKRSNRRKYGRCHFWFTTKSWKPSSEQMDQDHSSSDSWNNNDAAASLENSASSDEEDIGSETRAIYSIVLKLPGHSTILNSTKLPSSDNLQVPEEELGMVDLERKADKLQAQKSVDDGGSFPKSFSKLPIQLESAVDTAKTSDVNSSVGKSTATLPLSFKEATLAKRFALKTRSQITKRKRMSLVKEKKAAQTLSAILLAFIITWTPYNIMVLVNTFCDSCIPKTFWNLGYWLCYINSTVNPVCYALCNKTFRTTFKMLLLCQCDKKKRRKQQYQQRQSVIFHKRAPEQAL

Structure (SMILES) | EC50 [1] [nM] | Emax [1] [%] | % Emax cf. ACh, M4 [2, 5] [%] | EC50 [2, 6] [nM] | EC50 [3] [nM] | Emax [3] [%] | EC50 [4] [nM] | Emax ([4]; CHO, read-out: % Emax cf. ACh, M2, CHO cells stably expressing human M2, Emax compared with ACh) [%] | Emax [2] [%] | % Emax cf. ACh, M3 [3] [%] | % Emax cf. ACh, M2 ([4]; Emax compared with ACh) [%] | % Emax cf. ACh, M1 [1] [%] | pEC50 M3 [3] | pEC50 M2 [4] | pEC50 M1 [1] | pEC50 M4 [2, 6]
CCOC(=O)N1CCCC(N2CCC(C(C)=NOC(C)C)CC2)CC1 (single isomer, unassigned) [1-9 Isomer 1 (racemic)] | 631 | 57 | 0 | > 20000 |  |  |  |  |  |  |  |  |  |  |  | 
CCCC(=NOC)C1CCN(C2CC3(CCN(C(=O)OCC)C3)C2)CC1 (mixture of isomers) [2-3 Mixture of two isomers] | > 20000 | 22 |  | 20 | > 20000 | 5 | > 20000 | 7 | 93 |  |  |  |  |  |  | 
CCOC(=O)N1CCCC(N2CCC(C(=NOC)C(C)C)CC2)CC1 (single isomer, unassigned) [1-5 Isomer 2 (racemic)] |  |  | 104 |  |  |  |  |  |  | 4 | 22 | 105 | < 4.7 | < 4.7 | 6.5 | 7.5
CCOC(=O)N1CCC2(CC(N3CCC(C(CC)=NOC)CC3)C2)C1 (single isomer, unassigned) [2-2 Isomer 3] | > 20000 |  | 67 | 50.1 | > 20000 |  | > 20000 |  |  | 2 | 7 | 5 |  |  |  | 
CCOC(=O)N1CCCC(N2CCC(C(=NOC)C(C)C)CC2)CC1 (single isomer, unassigned) [1-4 Isomer 2 (racemic)] | 316 |  | 107 | 31.6 | > 15800 |  | > 15800 |  |  | 6 | 7 | 95 |  |  |  | 
CCON=C(C)C1CCN(C2CCCN(C(=O)OCC)CC2)CC1 (single isomer, unassigned) [1-7 Isomer 1 (racemic)] | 631 | 48 |  | 631 |  |  |  |  | 52 |  |  |  |  |  |  | 
CCOC(=O)N1CCC2(CC(N3CCC(C(CC)=NOC)CC3)C2)C1 (single isomer, unassigned) [2-2 Isomer 4] | 200 |  | 105 | 20 |  |  |  |  |  | 18 | 69 | 59 | < 4.7 | < 4.7 |  | 
CCOC(=O)N1CCCC(N2CCC(C(C)=NOC(C)C)CC2)CC1 (single isomer, unassigned) [1-9 Isomer 2 (racemic)] |  |  | 81 | 398 |  |  |  |  |  |  |  | 46 |  |  | 6.2 | 
CCCON=C(C)C1CCN(C2CCCN(C(=O)OCC)CC2)CC1 (single isomer, unassigned) [1-8 Isomer 1 (racemic)] | 794 | 65 |  | 794 |  |  |  |  | 46 |  |  |  |  |  |  | 
CCON=C(C)C1CCN(C2CCCN(C(=O)OCC)CC2)CC1 (single isomer, unassigned) [1-7 Isomer 2 (racemic)] | 501 |  | 62 | 251 |  |  |  |  |  |  |  | 66 |  |  |  | 
CCCON=C(C)C1CCN(C2CCCN(C(=O)OCC)CC2)CC1 (single isomer, unassigned) [1-8 Isomer 2 (racemic)] | 316 |  | 50 | 316 |  |  |  |  |  |  |  | 85 |  |  |  | 
CCOC(=O)N1CCCC(N2CCC(C(=NOC)NCC(C)C)CC2)CC1 (racemic) [3-1 Mixture of isomers] | 251 | 136 |  | 398 |  |  |  |  | 56 |  |  |  |  |  |  | 

Further lines, results first:

EC50 [1] [nM] | Emax [1] [%] | % Emax cf. ACh, M4 [2, 5] [%] | EC50 [2, 6] [nM] | EC50 [3] [nM] | Emax [3] [%] | EC50 [4] [nM] | Emax ([4]; CHO, read-out: % Emax cf. ACh, M2, CHO cells stably expressing human M2, Emax compared with ACh) [%] | Emax [2] [%] | % Emax cf. ACh, M3 [3] [%] | % Emax cf. ACh, M2 ([4]; Emax compared with ACh) [%] | % Emax cf. ACh, M1 [1] [%] | pEC50 M3 [3] | pEC50 M2 [4] | pEC50 M1 [1] | pEC50 M4 [2, 6] | Structure (SMILES)
100 |  | 80 | 63.1 | > 20000 |  | > 20000 |  |  | 6 | 5 | 98 |  |  |  |  | CCOC(=O)N1CCCC(N2CCC(C(CC)=NOC(C)C)CC2)CC1 (single isomer, unassigned) [1-12 Isomer 1 (racemic)]
316 | 106 |  | 25.1 |  |  |  |  | 85 |  |  |  |  |  |  |  | CCCC(=NOC)C1CCN(C2CCCN(C(=O)OCC)CC2)CC1 (single isomer, unassigned) [1-3 Isomer 1 (racemic)]
> 20000 | 21 |  | 63.1 | > 20000 | 9 | > 20000 |  | 81 |  | 11 |  |  |  |  |  | CCOC(=O)N1CCC[C@H](N2CCC(C(CC)=NOC)CC2)CC1 (single isomer, unassigned) [(S)-1-2 Isomer 1]
501 |  |  | 79.4 | > 20000 |  | > 20000 |  | 99 | 37 | 2 | 58 |  |  |  |  | CCOC(=O)N1CCCC(N2CCC(C(CC)=NOC)CC2)CC1 (single isomer, unassigned) [1-2 Isomer 1 (racemic)]
316 |  | 101 | 25.1 |  |  |  |  |  | 1 | 2 | 72 | < 4.7 | < 4.7 |  |  | CCOC(=O)N1CCCC(N2CCC(C(CC)=NOC(C)C)CC2)CC1 (single isomer, unassigned) [1-12 Isomer 2 (racemic)]
501 |  | 81 | 50.1 |  |  |  |  |  | 7 | 5 | 36 | < 4.7 | < 4.7 |  |  | CCOC(=O)N1CCC[C@H](N2CCC(C(CC)=NOC)CC2)CC1 (single isomer, unassigned) [(S)-1-2 Isomer 2]
631 | 47 | 31 | 200 |  |  |  |  |  |  |  |  |  |  |  |  | CCOC(=O)N1CCC[C@H](N2CCC(C(C)=NOC)CC2)CC1 (single isomer, unassigned) [(S)-1-1 Isomer 1]
251 | 107 | 72 | 126 |  |  |  |  |  |  |  |  |  |  |  |  | CCCON=C(CC)C1CCN(C2CCCN(C(=O)OCC)CC2)CC1 (single isomer, unassigned) [1-11 Isomer 1 (racemic)]
